In patent US20240285679A1, “COMPOSITIONS AND METHODS FOR VISION IMPROVEMENT” (Azura Ophthalmics Ltd., priority 2021, published 2024):

Test system: Patients with vision loss
Test: Clinical evaluation of vision improvement (OSDI vision assessment)
Assay type: in vivo
Settings: for course of OSDI vision improvement over the follow-up: follow-up at two weeks, one month, six weeks and 3 months; for vision, change from baseline as assessed by the OSDI vision assessment: twice a week on the lower eyelid of both eyes, FIGS. 2A-2C
Procedure: Patients with vision loss were treated with control (N=26) or a drug formulation comprising 0.1% selenium disulfide (n=9), 0.5% selenium disulfide (n=26), or 1% selenium disulfide (n=34). Treatment consisted of twice a week application of the drug product on the lower eyelid of both eyes. Patients were followed up and their vision was assessed with an Ocular Surface Disease Index (OSDI) vision assessment after two weeks, one month, six weeks, and 3 months.

## selenium disulfide
0.5% selenium disulfide
  course of OSDI vision improvement over the follow-up: continued improvement from 2 weeks to three months
1% selenium disulfide
  course of OSDI vision improvement over the follow-up: continued improvement from 2 weeks to three months
Drug formulation comprising 0.5% selenium disulfide
  vision, change from baseline as assessed by the OSDI vision assessment: improvement in vision
Drug formulation comprising 1% selenium disulfide
  vision, change from baseline as assessed by the OSDI vision assessment: improvement in vision
